How the values were obtained:
Type in all cases: physicochemical
[1] = Solubilization of 1% Spectrastat G2 Natural by solubilizer, Formulation Turbidity (FT); details: 5% solubilizer, aqueous
Experimental: (§1) Measurement of Turbidity via Nephelometric Turbidimetry. Clarity of solutions and formulations is reported as Aqueous Solution Turbidity (AST) or Formulation Turbidity (FT) measured in nephelometric turbidity units (NTU). Turbidity values were determined on an HF Scientific Micro 100 Benchtop Turbidity Meter operating at room temperature (23° C.±2° C.). Aqueous Solution Turbidity is an inherent property of a PGE composition when measured as specified at 5% in deionized water at 23±2° C.

[2] = STERC via bubble pressure tensiometry; details: at the CMC
Experimental: Dynamic surface tension reduction, i.e. surface tension reduction as a function of time, is measured by bubble pressure tensiometry using the maximum bubble pressure (MBP) method. When dynamic surface tension data obtained from MBP experiments is plotted as a function of surface age, fitting of the data to a first-order decay function as in Formula (III) enables one to obtain the Surface Tension Equilibration Rate Constant (STERC) for a given surfactant at a specific concentration.
Surface Tension Equilibration Rate Constant (STERC) is calculated according to Formula (III): γt=γeq+(γi−γeq)^−t/K (III) where: • γt=surface tension at time=t, in mN/m; • γeq=equilibrium surface tension, in mN/m; • γi=initial surface tension, in mN/m; • t=time, in ms; and • K=surface tension equilibration rate constant (STERC) in ms^−1.
Determination of STERC via Bubble Pressure Tensiometry. Dynamic surface tensions were determined on a Kruss BP100 Bubble Pressure Tensiometer, using a 0.256 mm OD silane-treated glass capillary submerged to a depth of 1.00 cm for testing and buoyancy compensated. […] The STERC as reported herein is determined at the CMC and is obtained by plotting the dynamic surface tension as a function of surface age and fitting the data to the equation below to obtain a first-order rate constant for reduction of surface tension from the initial value to the equilibrium value. […]

[3] = Aqueous Solution Turbidity (AST) / water solubility and clarity of 5% and 10% aqueous solutions
Experimental: as §1

[4] = Critical Micelle Concentration (CMC) via equilibrium surface tensiometry; details: pure water, 22° C.
Experimental: Determination of Critical Micelle Concentration (CMC) via Equilibrium Surface Tensiometry. […] Dipping distance for the plate was set to 3.00 mm prior to return to the surface within +/−0.01 mm for measurement of surface tension force. All tests were performed at 22° C.±0.2° C. For each surfactant a 1.00% stock solution in pure water was prepared and incrementally dosed into initially pure water to augment surfactant concentration while measuring surface tension after each concentration augmentation. Each surfactant was tested in duplicate runs at concentrations ranging from 0.001% to 0.500% of surfactant. The CMC value is taken at the intersection between the regression straight line of the linearly dependent region and the straight line passing through the plateau when surface tension is plotted as a function of concentration.

Substance: Heptyl Glucoside [CE4]
- FT [1]: 4.21 NTU
- STERC at CMC ([2]; 22° C.): 3226 ms^−1
- STERC ([2]; unit printed s^−1): 3226 s⁻¹
- AST @ 5% ([3]; 5% in deionized water, 23±2° C.): 0.65 NTU
- AST @ 10% ([3]; 10% in deionized water): 1.2 NTU
- CMC [4]: 0.0672 wt %

From patent US12527732B2, “Biobased polyglyceryl esters and compositions comprising the same” (Inolex Investment Corporation, priority 2021, dated 2026)
